Laboratory results published in patent publication US9539256B2 (THE BOARD OF REGENTS OF THE UNIVERSITY OF TEXAS SYSTEM, priority 2012, dated 2017).
One block for each compound: values may come before it.

What was measured:
[1] = biological target: T1, EPAC2 (Homo sapiens, UniProt Q8WZA2); experiment: Rap1 activation assay in HEK293/EPAC2 cells; type: cell-based; settings: for 007-AM induced Rap1 activation: HEK293/EPAC2 cells, pre-treatment with 10 μM compound
T1 construct: HEK293 cells that ectopically express full-length EPAC2 proteins; expressed in transfected cells; host or cells: HEK293
Procedure: (§1) FIGS. 9A-9B. Effects of EPAC2-specific antagonists on 007-AM-mediated cellular activation of Rap1. […] GTP-bound Rap1 (Rap1GTP) obtained by a Ral-GDSRBD-GST pull-down assay and total cellular Rap1 were detected by immunoblotting with Rap1-specific antibody. […] At test was used to determine statistical significance (*P<0.05).
(§2) Cellular activation of Rap1 was determined by pull-down of lysates derived from human vascular smooth muscle cell and HEK293 cells stably expressing EPAC1 or EPAC2 employing Ral-GDS-RBD-GST affinity beads as described earlier (Mei and Cheng (2005) Molecular Biosystems 1: 325-331).

[2] = biological target: T2, EPAC1 (Homo sapiens, UniProt O95398); experiment: Phosphorylation of Akt in HEK293/EPAC1 cells; type: cell-based; settings: stimulation with 007-AM
T2 sequence (O95398 1-923): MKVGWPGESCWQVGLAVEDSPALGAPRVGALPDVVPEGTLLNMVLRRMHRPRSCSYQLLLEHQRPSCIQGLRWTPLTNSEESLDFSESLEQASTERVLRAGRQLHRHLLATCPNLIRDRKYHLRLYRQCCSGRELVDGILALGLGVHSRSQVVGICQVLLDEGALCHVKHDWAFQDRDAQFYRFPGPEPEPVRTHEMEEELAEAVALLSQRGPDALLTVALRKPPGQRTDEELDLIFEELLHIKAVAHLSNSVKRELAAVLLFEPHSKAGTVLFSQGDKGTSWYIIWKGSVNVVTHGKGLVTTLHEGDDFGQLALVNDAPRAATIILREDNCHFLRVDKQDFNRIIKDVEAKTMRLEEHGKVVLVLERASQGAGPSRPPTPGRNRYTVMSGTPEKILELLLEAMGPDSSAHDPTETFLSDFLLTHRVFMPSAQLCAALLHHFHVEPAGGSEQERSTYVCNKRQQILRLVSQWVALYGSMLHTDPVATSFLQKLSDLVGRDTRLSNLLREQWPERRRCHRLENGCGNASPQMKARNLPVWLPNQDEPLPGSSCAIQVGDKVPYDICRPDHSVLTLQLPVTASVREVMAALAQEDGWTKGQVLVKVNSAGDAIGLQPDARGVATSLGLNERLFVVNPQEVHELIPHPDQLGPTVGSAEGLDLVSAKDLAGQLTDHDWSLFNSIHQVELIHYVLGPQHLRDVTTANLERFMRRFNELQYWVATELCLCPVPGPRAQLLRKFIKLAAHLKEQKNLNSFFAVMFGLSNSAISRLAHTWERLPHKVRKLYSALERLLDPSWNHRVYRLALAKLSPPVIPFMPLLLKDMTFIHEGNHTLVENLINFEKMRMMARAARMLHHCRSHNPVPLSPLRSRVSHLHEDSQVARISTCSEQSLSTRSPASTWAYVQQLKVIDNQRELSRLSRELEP
Procedure: (§3) FIG. 10. Effect of ESI-09 on EPAC-mediated PKB phosphorylation in HEK293/EPAC1, HEK293/EPAC2, and human vascular smooth muscle (hVSMC) cells. Serum-starved HEK293/EPAC1, HEK293/EPAC2, and hVSMC cells with or without pretreatment of […] ESI-09 were stimulated with 10 μM 007-AM. Cell lysates were subjected to Western blot analysis as described under “Experimental Procedures” using anti-phospho-Ser473-specific (PKB-P473) and anti-phospho-Thr308-specific (PKB-P308) PKB antibodies.
(§4) Cellular proteins from cell lysates treated with various reagents were separated by SDS-PAGE and transferred to polyvinylidene difluoride membrane. The levels of Akt activation were probed by immuno-blotting analyses using anti-phosphate T308 PKB antibodies (1:1000) and anti-phosphate S473 PKB antibodies (1:1000). At least three independent experiments were performed for each Western blot.

[3] = biological target: T1, EPAC2; experiment: Phosphorylation of Akt in HEK293/EPAC2 cells; type: cell-based; settings: stimulation with 007-AM
Procedure: as §3, §4

[4] = test system: AsPC-1 and PANC-1 cells; experiment: Cell adhesion assay on collagen I matrix; type: cell-based; settings: stimulation with 10 μM 007-AM
Procedure: FIG. 13 ESI-09 inhibits EPAC1-mediated adhesion of PDA cells on collagen I. AsPC-1 and PANC-1 cells were stimulated with vehicle or 10 μM 007-AM after treatment with the indicated concentrations of ESI-09 for 5 minutes. Bars represent mean±s.d.
It has been recently reported that EPAC1 is over-expressed in pancreatic adenocarcinoma (Lorenz et al. (2008) Pancreas 37: 102-103). However, the functional role of EPAC1 elevation in this neoplasm is not clear. The inventors sought to employ ESI-09 to determine the role of EPAC1 signaling in pancreatic cancer. […] In order to determine if the observed impact on cell migration is EPAC1 specific, the effect of suppressing EPAC1 expression on AsPC-1 and PANC-1 migration using RNAi was examined. […] To further determine how ESI-09 inhibits PDA cell migration and invasion, a cell adhesion assay was performed using a collagen I matrix. […] To determine the in vivo anti-metastatic effect of ESI-09, MIA PaCa-2 stably expressing luciferase were orthotopically implanted into the pancreas of athymic nude mice. The mice were randomly divided into two groups and treated with vehicle or ESI-09 (50 mg/kg per day, oral gavage), respectively. The growth and metastasis of the tumors were monitored by weekly bioluminescence imaging using the IVIS bioluminescence imaging system.

[5] = test system: type I PKA holoenzyme; experiment: PKA counter screening, type I holoenzyme; type: biochemical; settings: 25 μM compound
Procedure: (§5) Kinase activity of the type I and II PKA holoenzyme are measured spectrophotometrically in a 96-well plate with a coupled enzyme assay as described previously (Cook et al. (1982) Biochemistry 21: 5794-5799). In this assay, the formation of ADP is coupled to the oxidation of NADH by the pyruvate kinase/lactate dehydrogenase reactions so the reaction rate can be determined by following the oxidation of NADH, reflected by a decrease in absorbance at 340 nm. […] Reactions are pre-equilibrated at room temperature and initiated by adding the Kemptide substrate (final concentration 0.26 mM).

[6] = test system: type II PKA holoenzyme; experiment: PKA counter screening, type II holoenzyme; type: biochemical; settings: 25 μM compound
Procedure: as §5

[7] = biological target: T2, EPAC1; experiment: Rap1 activation assay in HEK293/EPAC1 cells; type: cell-based
Procedure: as §1, §2

[8] = biological target: T2, EPAC1; experiment: Rap1-GDP exchange (GEF) activity assay, EPAC1
[9] = biological target: T3, EPAC2 (Mus musculus, UniProt Q9EQZ6); experiment: 8-NBD-cAMP competition binding to EPAC2
T3 sequence (Q9EQZ6 1-1011): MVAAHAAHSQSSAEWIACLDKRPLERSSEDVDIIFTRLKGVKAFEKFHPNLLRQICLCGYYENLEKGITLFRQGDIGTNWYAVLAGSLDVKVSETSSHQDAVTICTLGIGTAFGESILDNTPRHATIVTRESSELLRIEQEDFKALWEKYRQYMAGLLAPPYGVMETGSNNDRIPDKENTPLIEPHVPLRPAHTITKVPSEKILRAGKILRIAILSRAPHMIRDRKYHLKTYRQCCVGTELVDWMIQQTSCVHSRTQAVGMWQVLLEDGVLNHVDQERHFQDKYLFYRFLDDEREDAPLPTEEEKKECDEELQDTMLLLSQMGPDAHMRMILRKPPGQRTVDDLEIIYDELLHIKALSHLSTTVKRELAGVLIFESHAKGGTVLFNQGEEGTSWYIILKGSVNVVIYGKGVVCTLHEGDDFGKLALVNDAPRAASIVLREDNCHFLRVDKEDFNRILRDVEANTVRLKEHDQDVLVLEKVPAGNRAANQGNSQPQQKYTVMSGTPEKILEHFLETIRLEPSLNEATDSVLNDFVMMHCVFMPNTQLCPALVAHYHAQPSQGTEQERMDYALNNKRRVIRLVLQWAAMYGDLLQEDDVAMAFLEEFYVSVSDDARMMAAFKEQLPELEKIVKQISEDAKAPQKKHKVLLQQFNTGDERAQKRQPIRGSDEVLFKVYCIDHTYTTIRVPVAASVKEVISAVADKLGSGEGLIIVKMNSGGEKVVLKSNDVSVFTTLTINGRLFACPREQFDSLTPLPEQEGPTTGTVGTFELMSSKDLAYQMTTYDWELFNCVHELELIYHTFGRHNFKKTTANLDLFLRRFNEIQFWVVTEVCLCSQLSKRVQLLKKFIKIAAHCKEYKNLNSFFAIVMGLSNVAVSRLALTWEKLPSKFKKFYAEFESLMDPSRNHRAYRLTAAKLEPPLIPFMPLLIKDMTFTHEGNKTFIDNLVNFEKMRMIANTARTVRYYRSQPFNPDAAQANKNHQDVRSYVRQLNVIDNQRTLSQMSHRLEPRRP
Procedure: Primary screen is performed in black 96-well or 384-well microplates. As an example, 50 nM EPAC2 solution is prepared in 20 mM Tris buffer, pH 7.5, containing 150 mM NaCl, 1 mM EDTA, and 1 mM […]. […] Sample is dispensed into plate and test compounds added from 96-well mother plates. […] Fluorescence intensity signal from 8-NBD was recorded at room temperature (rt) before and after tested compounds are added using SpectaMaxM2 microplate reader (Molecular Devices, Silicon Valley, Calif., USA) with excitation/emission wavelengths set at 470/540 nm.

T1 sequence (Q8WZA2 whole entry, species assumed): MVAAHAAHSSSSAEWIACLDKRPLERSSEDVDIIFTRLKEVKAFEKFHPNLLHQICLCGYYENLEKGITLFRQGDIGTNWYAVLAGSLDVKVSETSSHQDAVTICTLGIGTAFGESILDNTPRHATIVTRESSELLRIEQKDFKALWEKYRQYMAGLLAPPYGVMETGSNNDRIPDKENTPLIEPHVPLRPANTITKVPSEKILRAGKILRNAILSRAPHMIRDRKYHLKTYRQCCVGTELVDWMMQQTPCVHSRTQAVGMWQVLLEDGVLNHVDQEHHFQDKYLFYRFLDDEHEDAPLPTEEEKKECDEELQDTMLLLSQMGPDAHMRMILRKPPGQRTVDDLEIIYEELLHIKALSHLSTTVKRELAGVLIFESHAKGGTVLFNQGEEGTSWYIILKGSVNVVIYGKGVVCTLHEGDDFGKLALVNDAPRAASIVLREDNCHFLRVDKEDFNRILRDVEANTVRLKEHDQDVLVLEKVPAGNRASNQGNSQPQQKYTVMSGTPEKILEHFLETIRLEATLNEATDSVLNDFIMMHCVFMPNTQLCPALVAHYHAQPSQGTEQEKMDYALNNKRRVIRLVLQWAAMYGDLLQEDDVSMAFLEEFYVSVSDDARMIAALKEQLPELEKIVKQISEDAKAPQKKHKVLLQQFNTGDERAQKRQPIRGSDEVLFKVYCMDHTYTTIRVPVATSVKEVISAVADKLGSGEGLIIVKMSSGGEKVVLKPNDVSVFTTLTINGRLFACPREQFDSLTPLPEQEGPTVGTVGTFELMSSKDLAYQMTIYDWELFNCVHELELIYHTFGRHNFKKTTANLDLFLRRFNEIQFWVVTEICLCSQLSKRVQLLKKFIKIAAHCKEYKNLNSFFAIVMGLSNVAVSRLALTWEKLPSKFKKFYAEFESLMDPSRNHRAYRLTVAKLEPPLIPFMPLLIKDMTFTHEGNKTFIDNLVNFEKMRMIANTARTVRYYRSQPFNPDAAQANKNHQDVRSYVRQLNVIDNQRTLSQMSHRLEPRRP

Structure (SMILES): CO[C@@H]1[C@@H]2OP(=O)(OCOC(C)=O)OC[C@H]2O[C@H]1n1c(Sc2ccc(Cl)cc2)nc2c(N)ncnc21 (stereo partly drawn) [Compound 007-AM, 8-(4-Chlorophenylthio)-2′-O-methyladenosine-3′,5′-cyclic monophosphate, acetoxymethyl ester, reference compound]
- fraction of GTP-bound cellular Rap1 ([1]; HEK293/EPAC2 cells treated with 007-AM): increase
- Akt phosphorylation for both T308 and S473 [2]: increase
- Akt phosphorylation for both T308 and S473 [3]: increase
- cell adhesion [4]: increase

Structure (SMILES): O=S(=O)(NCCNC/C=C/c1ccc(Br)cc1)c1cccc2cnccc12 [Compound H89, reference compound]
- cAMP-induced type I PKA holoenzyme activation [5]: blocked the type I or II PKA activities completely
- cAMP-induced type II PKA holoenzyme activation [6]: blocked the type I or II PKA activities completely

- cAMP-induced type I PKA holoenzyme activation [5]: did not significantly alter
- cAMP-induced type II PKA holoenzyme activation [6]: did not significantly alter
- 007-AM induced Rap1 activation [1]: significant reduction
- 007-AM induced Rap1 activation [7]: ineffective
- suppressing EPAC1 GEF activity ([8]; cAMP-mediated Rap1-GDP exchange): completely ineffective
- EPAC1 IC50 ([8]; suppressing EPAC1 GEF activity, 25 μM cAMP): NMA*
Structure (SMILES): Cc1ccc(S(=O)(=O)c2c(C)cc(C)cc2C)cc1 [ESI-05]

- Relative Potency (RA) ([9]; RA = IC50, cAMP/IC50, compound): 4.5
- IC50 ([9]; competing with 8-NBD-cAMP in binding EPAC2, read-out: Apparent IC50): 8.7 ± 1.1 µM
- 007-AM induced Rap1 activation [1]: much less effective
Structure (SMILES): Cc1ccc(C)c(CSc2nc(C3CCCCC3)c(C#N)c(=O)[nH]2)c1 [ESI-08]
